Key:
Type in all cases: in vivo
[1] = system: Spodoptera frugiperda; assay: Insecticidal activity assay, corn leaf dip, 3rd instar larvae; conditions: liquid concentration 0.3 ppm, 48 h
Procedure: (§1) The compound of the present invention was dissolved in acetone, and then diluted with water into liquids with gradients of different concentrations (ppm). Corn leaves were soaked in liquids of different concentrations for about 20 seconds, air-dried and then placed in petri dishes where 3rd instar Spodoptera frugiperda were placed, respectively; kale leaves were soaked in liquids of different concentrations for about 20 seconds, air-dried and then placed in petri dishes where 3rd instar Spodoptera frugiperda were placed, respectively; peanut leaves were soaked in liquids of different concentrations for about 20 seconds, air-dried and then placed in petri dishes where Tetranychus urticae (adult mite) and Aphis craccivora (adult aphid) were placed, respectively; water bamboo leaves were soaked in liquids of different concentrations for about 20 seconds, air-dried and then placed in petri dishes where 4th instar Chilo suppressalis were placed, respectively. Each petri dish was placed with 10 insects, covered and then stored at 25° C. in a constant temperature room. The number of dead insects were checked after 48 h. The dead insect rate was calculated by the formula: Death rate (%)=(Number of dead insects/Number of test insects)×100. Furthermore, the experiment was conducted in two replications.

[2] = system: Spodoptera exigua; assay: Insecticidal activity assay, kale leaf dip, 3rd instar larvae; conditions: liquid concentration 0.3 ppm, 48 h
[3] = system: Aphis craccivora; assay: Insecticidal activity assay, peanut leaf dip, adult aphid; conditions: liquid concentration 8.1 ppm, 48 h
Procedure: as §1

[4] = system: Tetranychus urticae; assay: Insecticidal activity assay, peanut leaf dip, adult mite; conditions: 48 h
Procedure: as §1

[5] = system: Chilo suppressalis; assay: Insecticidal activity assay, water bamboo leaf dip, 4th instar larvae; conditions: liquid concentration 0.4 ppm, 48 h
Procedure: as §1

[6] = system: Spodoptera frugiperda; assay: Assay of insecticidal activity of compositions (synergism), 3rd instar; conditions: A 0.1 ppm
Procedure: as §1
• Test targets: Spodoptera frugiperda (3rd instar) and Aphis gossypii (adult aphid) […]
(§2) Different ratios within the selected ratio range were set for toxicity determination, and the optimal ratio was selected according to synergistic effects. When the synergistic effect >0, it indicated a synergistic effect; when the synergistic effect is close to 0, it indicated an addition effect; when the synergistic effect <0, it indicated an antagonistic effect.
(§3) [formula] • wherein, P1, P2—Death rate by each individual agent in a mixed formulation.

[7] = system: Aphis gossypii; assay: Assay of insecticidal activity of compositions (synergism), zucchini leaves, adult aphid
Procedure: as §1
• Test targets: Spodoptera frugiperda (3rd instar) and Aphis gossypii (adult aphid)
Referring to the above-mentioned Insecticidal activity assay, when the test target was Aphis gossypii, the zucchini leaves were selected.
as §2, §3

Work on `COC(=O)C(C)NC(=O)c1ccc(C2=NOC(c3cc(Cl)c(F)c(C(F)(F)F)c3)(C(F)(F)F)C2)cc1C` (mixture of isomers) [2 (2R)] yielded a Death rate [1] of 100%, a Death rate [2] of 90% and a Death rate [3] of 90%. It also gave a Death rate ([4]; liquid concentration 0.9 ppm) of 100% and a Death rate [5] of 100%.

Molecule `COC(=O)[C@@H](C)NC(=O)c1ccc(C2=NOC(c3cc(Cl)c(Cl)c(C(F)(F)F)c3)(C(F)(F)F)C2)cc1C` (stereo partly drawn) [Compound 3 (2R)] has a Death rate [1] of 100%, a Death rate [2] of 77% and a Death rate [3] of 93%. The Death rate ([4]; liquid concentration 0.9 ppm) was 100%, the Death rate [5] was 100% and the “Death rate by individual A” value [6] was 72%. For the same molecule, the “Death rate by individual A” value ([7]; A 0.1 ppm) was 38%.

Molecule `COC(=O)[C@@H](C)NC(=O)c1ccc(C2=NOC(c3cc(Cl)cc(Cl)c3)(C(F)(F)F)C2)cc1C` (some centres unmarked) [Control compound A, reference compound] has a Death rate [1] of 70%, a Death rate [2] of 30% and a Death rate [3] of 20%. The Death rate ([4]; liquid concentration 8.1 ppm) was 25% and the Death rate [5] was 40%.

`CCc1cc(C2=NOC(c3cc(Cl)c(Cl)c(C(F)(F)F)c3)(C(F)(F)F)C2)ccc1C(=O)NC(C)C(=O)OC` (mixture of isomers) [140 (2R)] was tested, and the Death rate [1] was 100%, the Death rate [2] was 100% and the Death rate [3] was 100%. It also gave a Death rate ([4]; liquid concentration 8.1 ppm) of 100% and a Death rate [5] of 100%.

Molecule `COC(=O)[C@@H](C)NC(=O)c1ncc(C2=NOC(c3cc(Cl)c(Cl)c(C(F)(F)F)c3)(C(F)(F)F)C2)cc1C` (stereo partly drawn) [Compound 154 (2R)] has a Death rate [1] of 100%, a Death rate [2] of 77% and a Death rate [3] of 93%. It also gave a Death rate ([4]; liquid concentration 0.9 ppm) of 100% and a Death rate [5] of 100%.

`CC(C)=NOC(=O)[C@@H](C)NC(=O)c1ccc(C2=NOC(c3cc(Cl)c(Cl)c(C(F)(F)F)c3)(C(F)(F)F)C2)cc1C` (stereo partly drawn) [Compound 80 (2R)] was tested, and the Death rate [1] was 100%, the Death rate [2] was 100% and the Death rate [3] was 100%. For the same molecule, the Death rate ([4]; liquid concentration 8.1 ppm) was 100% and the Death rate [5] was 100%.

`COC(=O)[C@@H](C)NC(=O)c1ccc(C2=NOC(c3cc(Cl)c(Cl)c(C(F)(F)F)c3)(C(F)(F)F)C2)cc1Cl` (stereo partly drawn) [Compound 144 (2R)] was tested, and the Death rate [1] was 100%, the Death rate [2] was 100% and the Death rate [3] was 100%. For the same molecule, the Death rate ([4]; liquid concentration 8.1 ppm) was 100% and the Death rate [5] was 100%.

`COC(=O)CNC(=O)c1ccc(C2=NO[C@@](c3cc(Cl)c(Cl)c(C(F)(F)F)c3)(C(F)(F)F)C2)cc1C` [188 (5S)] gave a Death rate [1] of 100%, a Death rate [2] of 100% and a Death rate [3] of 100%. For the same molecule, the Death rate ([4]; liquid concentration 8.1 ppm) was 100% and the Death rate [5] was 100%.

For `COC(=O)C(C)NC(=O)c1ccc(C2=NOC(c3cc(Cl)c(Cl)c(C(F)(F)F)c3)(C(F)(F)F)C2)cc1C(F)(F)F` (mixture of isomers) [147 (2R)], the Death rate [1] was 100%, the Death rate [2] was 100% and the Death rate [3] was 100%. It also gave a Death rate ([4]; liquid concentration 8.1 ppm) of 100% and a Death rate [5] of 100%.

`CN/C(=N/CC1CCOC1)N[N+](=O)[O-]` (centres unmarked) [Dinotefuran, reference compound] was tested, and the pest or weed control at 5 µg/mL ([7]; in Cucurbita pepo, 48 h, B 5 ppm, read-out: Death rate by individual B) was 40%.

`COC(=O)C(C)NC(=O)c1ccc(C2=NOC(c3cc(Cl)cc(C(F)(F)F)c3)(C(F)(F)F)C2)cc1C` (mixture of isomers) [1 (2R)] was tested, and the Death rate [1] was 100%, the Death rate [2] was 90% and the Death rate [3] was 83%. For the same molecule, the Death rate ([4]; liquid concentration 8.1 ppm) was 83% and the Death rate [5] was 100%.

Molecule `CCN(Cc1ccc(Cl)nc1)/C(=C/[N+](=O)[O-])NC` [Nitenpyram, reference compound] has a pest or weed control at 1 µg/mL ([7]; in Cucurbita pepo, 48 h, B 1 ppm, read-out: Death rate by individual B) of 36%.

`COC(=O)C(C)NC(=O)c1ccc(C2=NOC(c3cc(Cl)c(F)c(C(F)(F)F)c3)(C(F)(F)F)C2)cc1C` [Compound 2 (5S, 2R)] was tested, and the Death rate [1] was 100%, the Death rate [2] was 100% and the Death rate [3] was 100%. For the same molecule, the Death rate ([4]; liquid concentration 0.9 ppm) was 100% and the Death rate [5] was 100%.

Source: patent US20260209189A1, “ISOXAZOLINE-SUBSTITUTED BENZAMIDE COMPOUND AND APPLICATION THEREOF” (priority 2022, published 2026)
